Read-outs that look alike come from different tables or passages of the source.
Columns and labels:
[1] = Intravenous pharmacokinetics in rats; type: in vivo; details: rat; for half-life / AUC / AUC(0-inf) / clearance / Cmax / Vd: plasma, iv, n = 3; for half-life: glycerol formal, read-out: T1/2, terminal elimination half-life (converted); for clearance: read-out: CL, systemic clearance (converted); for Cmax: read-out: Cmax, peak plasma concentration; for Vd: read-out: Vd, volume of distribution
Procedure: Blood samples (>0.2 mL) for plasma were collected by cannulated right jugular vein at 1, 2, 5, 10, and 30 min, and 1, 2, 4, 6, 12, 24, 36, and 48 h post-dose. Plasma samples were harvested by centrifugation at 13,000 rpm for 10 min and stored at −20 °C until analysis.
To analyze the in vivo (dermal and i.v. application) samples, 50 µL of the plasma was used, and extraction and analysis methods were the same as in vitro samples.
In the in vivo study, the terminal elimination half-life (T1/2) was calculated to be 0.693/λz. The slope of the last phase (λz) is the individual estimate of the terminal elimination rate constant, which is calculated using log-linear regression of the terminal portions of the plasma concentration–time curves. The area under the plasma concentration–time curve from time zero to the last observation time point (AUCall) was calculated using the trapezoidal rule, and the AUC to infinity time (AUCinf) was obtained by adding Cn/λz to the AUCall (Cn: last concentration of chemical). Systemic clearance (CL) was calculated as dose/AUC. The apparent volume of the distribution (Vd) during the terminal phase was calculated as CL/λz. The peak plasma concentration (Cmax) and time to reach Cmax (Tmax) were determined directly from these observations. The relative bioavailability (F) after dermal application was calculated as F (%) = 100 (Doseiv·AUCdermal)/(Dosedermal·AUCiv).
The plasma concentration–time data were analyzed using a non-compartmental WinNonlin model (version 2.1, Pharsight, NC, USA) to acquire i.v. and dermal pharmacokinetic parameters.

[2] = Dermal pharmacokinetics / in vivo dermal absorption in rats; design: species or system rat
Procedure: Blood samples (approximately 0.2 mL) were taken periodically by cannulated right jugular vein at 15 and 30 min, and 1, 2, 4, 8, 12, 24, 36, and 48 h post-dose. […] To analyze the in vivo (dermal and i.v. application) samples, 50 µL of the plasma was used, and extraction and analysis methods were the same as in vitro samples. […] The slope of the last phase (λz) is the individual estimate of the terminal elimination rate constant, which is calculated using log-linear regression of the terminal portions of the plasma concentration–time curves. The area under the plasma concentration–time curve from time zero to the last observation time point (AUCall) was calculated using the trapezoidal rule, and the AUC to infinity time (AUCinf) was obtained by adding Cn/λz to the AUCall (Cn: last concentration of chemical). Systemic clearance (CL) was calculated as dose/AUC. The apparent volume of the distribution (Vd) during the terminal phase was calculated as CL/λz. The peak plasma concentration (Cmax) and time to reach Cmax (Tmax) were determined directly from these observations. […] The plasma concentration–time data were analyzed using a non-compartmental WinNonlin model (version 2.1, Pharsight, NC, USA) to acquire i.v. and dermal pharmacokinetic parameters.

[3] = Stability of BCP in receptor fluid (6% POE20); type: physicochemical; details: 0.5 mg/mL, 48 h, 32 °C, sink conditions, n = 3
Procedure: The in vitro dermal absorption study followed the guidelines of the Korea Ministry of Food and Drug Safety [15] with a Franz diffusion cell system consisting of a vision Microette auto-sampler, stirring drive, circulating water bath, stirring control, and autofill (Hanson, Chatsworth, CA, USA). The volume of the receptor fluid chamber was 12 mL and the temperature of the receptor fluid was maintained in a circulating water bath at 32 °C. […] The skin, after hydrating with normal saline for 5 min, was then placed between the donor and receptor compartments of the diffusion cells. […] Each formulation (~200 mg) was applied to 1.77 cm^2 of the donor chamber.

[4] = design: method as in Table S1; details: ref Table S1; cited from earlier work
androgen receptor = system: androgen receptor; design: method as in PMID 33064576; details: in silico and in vitro studies; cited from earlier work
estrogen receptor α = system: estrogen receptor α; design: method as in PMID 33064576; details: in silico and in vitro studies; cited from earlier work
glucocorticoid receptor = system: glucocorticoid receptor; design: method as in PMID 33064576; details: in silico and in vitro studies; cited from earlier work
thyroid receptor α = system: thyroid receptor α; design: method as in PMID 33064576; details: in silico and in vitro studies; cited from earlier work
thyroid receptor β = system: thyroid receptor β; design: method as in PMID 33064576; details: in silico and in vitro studies; cited from earlier work
[5] = design: method as in PMID 34335256; details: female rats, oral, 28 days, 500 and 1000 mg/kg; cited from earlier work
[6] = design: method as in PMID 34335256; details: hydrogel formulation, 0.262 mg/kg rat dorsal application; cited from earlier work
gram-positive bacteria = system: gram-positive bacteria; design: method as in Table S1; details: ref Table S1; cited from earlier work
gram-negative bacteria = system: gram-negative bacteria; design: method as in Table S1; details: ref Table S1; cited from earlier work
yeasts / moulds = system: yeasts / moulds; design: method as in Table S1; details: ref Table S1; cited from earlier work
[7] = cited from earlier work

For `Oc1c(Br)cc(Cl)cc1Cc1cc(Cl)cc(Br)c1O` [BCP, 2,2'-Methylenbis (6-bromo-4-chlorophenol)], which half-life ([1]; i.v. 0.2 mg/kg) is on record?
Its half-life is 34.5 ± 5.87 h.

And the AUC ([1]; i.v. 0.2 mg/kg)?
The AUC was 4190 ± 320 ng·h/mL.

What about the AUC(0-inf) ([1]; i.v. 0.2 mg/kg) of the same molecule?
Its AUC(0-inf) is 5860 ± 767 ng·h/mL.

What about the clearance ([1]; i.v. 0.2 mg/kg) of the same molecule?
The clearance was 0.576 mL/min/kg.

And the Cmax ([1]; i.v. 0.2 mg/kg)?
The Cmax was 4190 ± 1690 ng/mL.

And the Vd ([1]; i.v. 0.2 mg/kg)?
Its Vd is 1.74 ± 0.072 L/kg.

What about the half-life ([1]; i.v. 1 mg/kg) of the same molecule?
Its half-life is 30.5 ± 1.83 h.

And the AUC ([1]; i.v. 1 mg/kg)?
Its AUC is 30500 ng·h/mL.

What about the AUC(0-inf) ([1]; i.v. 1 mg/kg) of the same molecule?
Its AUC(0-inf) is 41600 ng·h/mL.

What about the clearance ([1]; i.v. 1 mg/kg) of the same molecule?
Its clearance is 0.401 mL/min/kg.

And the Cmax ([1]; i.v. 1 mg/kg)?
The Cmax was 11400 ng/mL.

What about the Vd ([1]; i.v. 1 mg/kg) of the same molecule?
The Vd was 1.06 ± 0.0502 L/kg.

What about the “AUCs (AUCall and AUCinf) in plasma at 1 mg/kg versus 0.2 mg/kg” value ([1]; i.v.) of the same molecule?
Its value is “approximately 7 fold”.

And the “Representative (total) dermal absorption of BCP” value ([2]; determined from the in vivo PK / dermal study in rats)?
The value was 12.20 ± 2.63%.

What about the bioavailability ([2]; rat, plasma, topical, 234 mg/kg formulation, read-out: F, dermal bioavailability) of the same molecule?
The bioavailability was 12.2 ± 2.63%.

And the “Stability in 6% POE20” value [3]?
Its value is “stable”.

And the Solubility in water [4]?
Its Solubility in water is < 5 µg/mL.

And the “Action on androgen receptor” value (androgen receptor)?
Its value is “antagonist”.

And the “Action on estrogen receptor α” value (estrogen receptor α)?
Its value is “antagonist”.

What about the “Action on glucocorticoid receptor” value (glucocorticoid receptor) of the same molecule?
Its value is “antagonist”.

And the “Action on thyroid receptor α” value (thyroid receptor α)?
Its value is “antagonist”.

What about the “Action on thyroid receptor β” value (thyroid receptor β) of the same molecule?
The value was “antagonist”.

And the “Hematological and histopathological characteristics” value [5]?
The value was “altered”.

And the BCP absorption [6]?
The BCP absorption was 29.25 ± 6.09%.

What about the “Effect of preservative, gram-positive bacteria” value (gram-positive bacteria) of the same molecule?
Its value is “good”.

What about the “Effect of preservative, gram-negative bacteria” value (gram-negative bacteria) of the same molecule?
Its value is “moderate”.

And the “Effect of preservative, yeasts / moulds” value (yeasts / moulds)?
The value was “inadequate”.

And the LogPow ([7]; ref Table S1)?
The LogPow was 6.12.

For `COc1ccc(C(=O)c2ccccc2)c(O)c1` [benzophenone-3], which LogPow [7] is on record?
The LogPow was 3.58.

For `CCCCC(CC)COC(=O)C=Cc1ccc(OC)cc1` (centres unmarked) [ethylhexyl methoxycinnamate], which LogPow [7] is on record?
Its LogPow is 5.96.

For `CC1CC(OC(=O)c2ccccc2O)CC(C)(C)C1` (centres unmarked) [homosalate], which LogPow [7] is on record?
The LogPow was 5.94.

Which LogPow [7] does the source give for `C[C@]12CC[C@H]3[C@@H](CCC4=CC(=O)CC[C@@]43C)[C@@H]1CC[C@@H]2O` [testosterone, reference compound] here?
The LogPow was 3.3.

Reference: PMC9229563, “Pharmacokinetics and the Dermal Absorption of Bromochlorophene, a Cosmetic Preservative Ingredient, in Rats” (Toxics, 2022)
